Measurements from patent US20060069132A1, “Azolecarboxamide herbicides” (priority 2004, published 2006).

Assays:
eastern black nightshade = test: Test C pre-/postemergence herbicide test; assay type: in vivo, Solanum ptycanthum; conditions: preemergence
Procedure, shortened: (§1)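 Visual injury scores run from 0 (no effect) to 100 (complete control), assessed relative to untreated controls 12 to 14 days after treatment in the greenhouse. Chemicals were formulated in a non-phytotoxic solvent mixture with surfactant and applied to soil after planting or to emerged plants at the 1- to 4-leaf stage.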

morningglory = test: Test C pre-/postemergence herbicide test; assay type: in vivo, Ipomoea coccinea; parameters: key to Plant response rating, Morningglory: 0 = no effect, 100 = complete control; conditions: preemergence
Procedure, shortened: as §1

bermudagrass = test: Test C pre-/postemergence herbicide test; assay type: in vivo, Cynodon dactylon
Procedure, shortened: as §1

[1] = tested on: smallflower umbrella sedge; test: Test C flooded paddy test; assay type: in vivo, Cyperus difformis; conditions: for Plant response rating, Sedge, Umbrella: 500 g ai/ha, visual rating after 12 to 14 days
lambsquarters = test: Test C pre-/postemergence herbicide test; assay type: in vivo, Chenopodium album; conditions: preemergence
Procedure, shortened: as §1

yellow nutsedge = test: Test C pre-/postemergence herbicide test; assay type: in vivo, Cyperus esculentus; conditions: preemergence
Procedure, shortened: as §1

common ragweed = test: Test C pre-/postemergence herbicide test; assay type: in vivo, Ambrosia elatior; parameters: key to Plant response rating, Ragweed: 0 = no effect, 100 = complete control; conditions: preemergence
Procedure, shortened: as §1

giant foxtail = test: Test C pre-/postemergence herbicide test; assay type: in vivo, Setaria faberi; conditions: preemergence
Procedure, shortened: as §1

barnyardgrass = test: Test C flooded paddy test; assay type: in vivo, Echinochloa crus-galli; conditions: for Plant response rating, Barnyardgrass: 500 g ai/ha, visual rating after 12 to 14 days
Procedure, shortened: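 Scoring by eye, 12–14 days post-treatment, greenhouse-held plants vs. controls; 0 no effect, 100 complete control. Sprayed at 1–4 leaves (2–18 cm); paddy barnyardgrass at 2 leaves, flooded.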

[2] = 500 g ai/ha, scale 0 to 100 (0 no effect, 100 complete control), visual, 12 to 14 days
[3] = 62 g ai/ha, preemergence, scale 0 to 100, 0 no effect, 100 complete control
[4] = 250 g ai/ha, scale 0-100, preemergence
[5] = 125 g ai/ha, scale 0 to 100 (0 no effect, 100 complete control)
[6] = 250 g ai/ha, scale of 0 to 100, 0 is no effect, 100 is complete control
[7] = scale 0 to 100 (0 no effect, 100 complete control)
[8] = 62 g ai/ha, scale 0 to 100 (0 no effect, 100 complete control)
[9] = 125 g ai/ha, scale 0 (no effect) to 100 (complete control), visual, 12 to 14 days

| Compound | Plant response rating, Nightshade (eastern black nightshade; 62 g ai/ha, scale 0 to 100) | Plant response rating, Nightshade (eastern black nightshade; 250 g ai/ha, scale 0-100) | Plant response rating, Nightshade (eastern black nightshade; [2]) | Plant response rating, Morningglory (morningglory; 62 g ai/ha, scale 0 to 100) | Plant response rating, Morningglory (morningglory; 250 g ai/ha, scale 0-100) | Plant response rating, Morningglory (morningglory; [2]) | Plant response rating, Bermudagrass (bermudagrass; [3]) | Plant response rating, Bermudagrass (bermudagrass; [4]) | Sedge, Umbrella plant response rating ([1]; 62 g ai/ha, scale 0 to 100) | Sedge, Umbrella plant response rating [1, 5] | Sedge, Umbrella plant response rating [1, 6] | Plant response rating, Sedge, Umbrella [1, 7] | Plant response rating, Lambsquarters (lambsquarters; 62 g ai/ha, scale 0 to 100) | Plant response rating, Lambsquarters (lambsquarters; 250 g ai/ha, scale 0-100) | Plant response rating, Lambsquarters (lambsquarters; [2]) | Plant response rating, Nutsedge, Yellow (yellow nutsedge; 62 g ai/ha, scale 0 to 100) | Plant response rating, Nutsedge, Yellow (yellow nutsedge; 250 g ai/ha, scale 0-100) | Plant response rating, Nutsedge, Yellow (yellow nutsedge; [2]) | Plant response rating, Ragweed (common ragweed; 62 g ai/ha, scale 0 to 100) | Plant response rating, Ragweed (common ragweed; 250 g ai/ha, scale 0-100) | other results |
| --- | --- | --- | --- | --- | --- | --- | --- | --- | --- | --- | --- | --- | --- | --- | --- | --- | --- | --- | --- | --- | --- |
| CCC1=NN(C(C)(C)C)CC1C(=O)Nc1cc(C(=O)N(C)C)ccc1F (racemic) [Compound 343] | 60 | 90 | 95 | 5 | 100 | 100 | 60 | 90 | 20 | 40 | 80 | 90 | 100 | 100 | 100 | 5 | 60 | 90 | 70 | 90 | Plant response rating (0 = no effect, 100 = complete control), Nightshade (eastern black nightshade; 125 g ai/ha): 60; Plant response rating (0 = no effect, 100 = complete control), Morningglory (morningglory; 125 g ai/ha): 60; Plant response rating (0 = no effect, 100 = complete control), Bermudagrass (bermudagrass; 125 g ai/ha, preemergence): 70; Plant response rating, Bermudagrass (bermudagrass; 500 g ai/ha, scale 0 to 100 (0 no effect, 100 complete control), visual, 12 to 14 days, preemergence): 90; Plant response rating (0 = no effect, 100 = complete control), Lambsquarters (lambsquarters; 125 g ai/ha): 100; Plant response rating (0 = no effect, 100 = complete control), Nutsedge, Yellow (yellow nutsedge; 125 g ai/ha): 10; Plant response rating (0 = no effect, 100 = complete control), Ragweed (common ragweed; 125 g ai/ha): 90; Plant response rating, Ragweed (common ragweed; [2]): 100; Plant response rating, Foxtail, Giant (giant foxtail; 62 g ai/ha, scale 0 to 100): 40; Plant response rating (0 = no effect, 100 = complete control), Foxtail, Giant (giant foxtail; 125 g ai/ha): 50; Plant response rating, Foxtail, Giant (giant foxtail; 250 g ai/ha, scale 0-100): 70; Plant response rating, Foxtail, Giant (giant foxtail; [2]): 80; Barnyardgrass plant response rating (barnyardgrass; [8]): 20; Barnyardgrass plant response rating (barnyardgrass; [5]): 20; Barnyardgrass plant response rating (barnyardgrass; [6]): 60; Plant response rating, Barnyardgrass (barnyardgrass; [7]): 80 |
| CCn1nc(C(C)(C)C)cc1C(=S)Nc1cc(C(=S)N(C)C)ccc1F [Compound 305] | 60 | 100 | 100 | 0 | 5 | 10 | 80 | 100 | 85 | 90 | 90 | 90 | 100 | 100 | 100 | 10 | 25 | 50 | 10 | 85 | Plant response rating, Nightshade (eastern black nightshade; [9]): 90; Plant response rating, Morningglory (morningglory; [9]): 0; Plant response rating, Bermudagrass (bermudagrass; 125 g ai/ha, scale 0 (no effect) to 100 (complete control), visual, 12 to 14 days, preemergence): 85; Bermudagrass plant response rating (bermudagrass; Preemergence, 500 g ai/ha, scale 0 to 100, 0 no effect, 100 complete control): 100; Plant response rating, Lambsquarters (lambsquarters; [9]): 100; Plant response rating, Nutsedge, Yellow (yellow nutsedge; [9]): 20; Plant response rating, Ragweed (common ragweed; [2]): 100; Plant response rating, Foxtail, Giant (giant foxtail; 62 g ai/ha, scale 0 to 100): 35; Plant response rating, Foxtail, Giant (giant foxtail; [9]): 85; Plant response rating, Foxtail, Giant (giant foxtail; 250 g ai/ha, scale 0-100): 100; Plant response rating, Foxtail, Giant (giant foxtail; [2]): 100; Barnyardgrass plant response rating (barnyardgrass; [8]): 70; Barnyardgrass plant response rating (barnyardgrass; [5]): 85; Barnyardgrass plant response rating (barnyardgrass; [6]): 95; Plant response rating, Barnyardgrass (barnyardgrass; [7]): 100 |
